In patent US10532065B2, “Bisphosphonic acid derivative and application for same” (NAGASAKI UNIVERSITY, priority 2014, dated 2020):

How the values were obtained:
Type in all cases: cell-based
[1] = tested on: U937 cells; assay: U937 cell growth inhibition (direct antitumor action, CellTiterGlo); details: for IC50: U937 cell growth inhibition, 4 days culture; for direct antitumor activity (in words): U937 growth inhibition
Description: (§1) The direct antitumor action of bisphosphonic acid POM ester and bisphosphonic acid was studied by comparison using U937.
(§2) The direct antitumor action of various bisphosphonic acid POM esters was studied by comparison using U937 and EJ-1. The measurement was performed according to Experimental Example 2 and Experimental Example 4.

[2] = tested on: EJ-1 cells; assay: EJ-1 cell growth inhibition (direct antitumor action, CellTiterGlo); details: for IC50: EJ-1 (bladder cancer) growth inhibition, 4 days culture; for direct antitumor activity (in words): EJ-1 growth inhibition
Description: as §1
(§3) The direct antitumor action of bisphosphonic acid POM ester derivatives and bisphosphonic acids was studied by comparison using EJ-1. It was performed in the same manner as in Experimental Example 1 except that EJ-1 was used as the cell to be used. For recovery of the cells, a conventional EDTA trypsin treatment was performed.
as §3, with “POM esters” for “POM ester derivatives”, “Example 2” for “Example 1”
as §2

[3] = tested on: EJ-1 cells / γδ T cells; assay: TNF-α production from γδ T cells stimulated by compound-pretreated EJ-1 cells (indirect antitumor action, ELISA); details: for EC50: EJ-1 pretreated 4 hr with compound, 16 hr with γδ T cells, TNF-α ELISA, read-out: TNF-α50
Description: The indirect antitumor action of bisphosphonic acid POM esters and bisphosphonic acids was studied by comparison using EJ-1. In principle, EJ-1 is treated with a compound, washed, and reacted with γδ T cells, and the cytotoxic ability is studied by comparison, by quantifying TNF-α produced by γδ T cells during cell disordering. TNF-α is generally used as an index of γδ T cell induction ability and/or proliferative capacity, and γδ T cells are considered to be induced and/or proliferated in proportion to the TNF-α amount (Journal of Immunology, 154, 5986-5994 (1995)). Since the produced TNF-α is what is called a tumor necrosis factor, it is considered to have an action to lower proliferation of cancer cells or induce cell death.
Thereto was added a solution (500 μl) of compounds 3, 5, 6, 7, which are bisphosphonic acid POM ester derivatives, obtained by serially diluting 10 mM stock solution 10-fold from 20 μM, or a solution (500 μl) of bisphosphonic acid 10, 12, 13, 14 compound obtained by serially diluting 10-fold from 200 μM, and the cells were suspended well. These conical tubes were stood at 37° C. for 4 hr, and the cells were washed 3 times with 5 ml of culture medium. To these cells was added 500 μl of medium, and the cells were suspended well. […] The cell culture medium was suspended well, and the plate was centrifuged at 1,700 rpm, 4° C. for 2 min and the culture supernatant (150 μl) was taken and placed in another round-bottomed 96 well plate. The plate was frozen at −80° C. overnight, left standing at room temperature for 1 hr, stirred well and 100 μl thereof was subjected to ELISA of TNF-α. The content of TNF-α was calculated from the analytical curve of TNF-α. These were performed in triplicate, and a graph showing bisphosphonic acid POM ester derivative and the corresponding bisphosphonic acid as one pair was plotted. […] The results of bisphosphonic acid POM ester derivative are shown by -●-, and the results of bisphosphonic acid are shown by -◯-.
The indirect antitumor action of bisphosphonic acid POM esters and bisphosphonic acids was quantitatively studied by comparison using EJ-1. […] Thereto was added a solution (500 μl) of a bisphosphonic acid POM ester derivative obtained by serially diluting 10 mM stock solution 10-fold from 20 μM, or a bisphosphonic acid solution (500 μl) serially diluted 10-fold from 200 μM was added, and the cells were suspended well. These conical tubes were stood at 37° C. for 4 hr, and the cells were washed 3 times with 5 ml of culture medium. To these cells was added 500 μl of medium, and the cells were suspended well. […] The cell culture medium was suspended well, and the plate was centrifuged at 1,700 rpm, 4° C. for 2 min and the culture supernatant (150 μl) was taken and placed in another round-bottomed 96 well plate. The plate was frozen at −80° C. overnight, left standing at room temperature for 1 hr, stirred well and 100 μl thereof was subjected to ELISA of TNF-α. The content of TNF-α was calculated from the analytical curve of TNF-α. These were performed in triplicate, and a half of the concentration of compounds 1-7, which are bisphosphonic acid POM ester derivatives, and compounds 8-14, which are bisphosphonic acids, necessary for producing the maximum amount of TNF-α from γδ T cells was calculated as TNF-α50, and summarized in Table 6.
Therefore, the TNF-α50 value of various bisphosphonic acid POM ester derivatives was calculated. […] Thereto was added a solution (500 μl) of compounds 1-7 and 15-39, which are bisphosphonic acid POM ester derivatives, and compound 42, which is other bisphosphonic acid ester derivative, obtained by serially diluting 10 mM stock solution 10-fold from 20 μM, and the cells were suspended well. These conical tubes were stood at 37° C. for 4 hr, and the cells were washed 3 times with 5 ml of culture medium. To these cells was added 500 μl of medium, and the cells were suspended well. […]

IC50 [1] [µM] | IC50 [2] [µM] | EC50 [3] [µM] | Compound | direct antitumor activity (in words) [1] | direct antitumor activity (in words) [2] | TNF-α production induction activity (in words) ([3]; EJ-1 pretreated with compound, γδ T cells)
3.5 | 4.5 | 3.4 | CCCCCCCCc1cccnc1NCC(P(=O)(OCOC(=O)C(C)(C)C)OCOC(=O)C(C)(C)C)P(=O)(OCOC(=O)C(C)(C)C)OCOC(=O)C(C)(C)C [Compound 23, tetrakispivaloyloxymethyl 2-(3-octanylpyridin-2-ylamino)ethylidene-1,1-bisphosphonate] | – | – | –
6.2 | 8.8 | > 10 | COc1ccc(-c2cccnc2NCC(P(=O)(OCOC(=O)C(C)(C)C)OCOC(=O)C(C)(C)C)P(=O)(OCOC(=O)C(C)(C)C)OCOC(=O)C(C)(C)C)cc1 [Compound 25, tetrakispivaloyloxymethyl 2-[3-(4-methoxyphenyl)pyridin-2-ylamino]ethylidene-1,1-bisphosphonate] | – | – | –
6.6 | 10 | > 10 | CC(C)(C)C(=O)OCOP(=O)(OCOC(=O)C(C)(C)C)C(CNc1ccc2ccccc2n1)P(=O)(OCOC(=O)C(C)(C)C)OCOC(=O)C(C)(C)C [Compound 30, tetrakispivaloyloxymethyl 2-(quinolin-2-ylamino)ethylidene-1,1-bisphosphonate] | – | – | –
2.5 | 1.1 | 0.063 | Cc1cnc(NCC(P(=O)(OCOC(=O)C(C)(C)C)OCOC(=O)C(C)(C)C)P(=O)(OCOC(=O)C(C)(C)C)OCOC(=O)C(C)(C)C)s1 [Compound 34, tetrakispivaloyloxymethyl 2-(5-methylthiazol-2-ylamino)ethylidene-1,1-bisphosphonate] | high activity | high activity | high activity
7.9 | 15 | 8 | CC(C)(C)C(=O)OCOP(=O)(OCOC(=O)C(C)(C)C)C(CNc1ccon1)P(=O)(OCOC(=O)C(C)(C)C)OCOC(=O)C(C)(C)C [Compound 36, tetrakispivaloyloxymethyl 2-(isoxazol-3-ylamino)ethylidene-1,1-bisphosphonate] | – | – | –
7.9 | 16 | > 10 | Cc1cc(NCC(P(=O)(OCOC(=O)C(C)(C)C)OCOC(=O)C(C)(C)C)P(=O)(OCOC(=O)C(C)(C)C)OCOC(=O)C(C)(C)C)no1 [Compound 37, tetrakispivaloyloxymethyl 2-(5-methylisoxazol-3-ylamino)ethylidene-1,1-bisphosphonate] | – | – | –

Further lines, the compound ahead of its results:

Compound | IC50 [1] [µM] | IC50 [2] [µM] | EC50 [3] [µM] | direct antitumor activity (in words) [1] | direct antitumor activity (in words) [2] | TNF-α production induction activity (in words) ([3]; EJ-1 pretreated with compound, γδ T cells)
CCCCCCCCc1ccc(NCC(P(=O)(OCOC(=O)C(C)(C)C)OCOC(=O)C(C)(C)C)P(=O)(OCOC(=O)C(C)(C)C)OCOC(=O)C(C)(C)C)nc1 [Compound 22, tetrakispivaloyloxymethyl 2-(5-octanylpyridin-2-ylamino)ethylidene-1,1-bisphosphonate] | 3.4 | 3.7 | 4.8 | – | – | –
CCCCCCCCc1cccc(NCC(P(=O)(OCOC(=O)C(C)(C)C)OCOC(=O)C(C)(C)C)P(=O)(OCOC(=O)C(C)(C)C)OCOC(=O)C(C)(C)C)n1 [Compound 24, tetrakispivaloyloxymethyl 2-(6-octanylpyridin-2-ylamino)ethylidene-1,1-bisphosphonate] | 3 | 6.3 | > 10 | – | – | –
CC(C)(C)C(=O)OCOP(=O)(OCOC(=O)C(C)(C)C)C(CNc1ncccc1-c1ccc(F)cc1)P(=O)(OCOC(=O)C(C)(C)C)OCOC(=O)C(C)(C)C [Compound 26, tetrakispivaloyloxymethyl 2-[3-(4-fluorophenyl)pyridin-2-ylamino]ethylidene-1,1-bisphosphonate] | 7 | 8.7 | > 10 | – | – | –
CC(C)(C)C(=O)OCOP(=O)(OCOC(=O)C(C)(C)C)C(CNc1ncccc1O)P(=O)(OCOC(=O)C(C)(C)C)OCOC(=O)C(C)(C)C [Compound 27, tetrakispivaloyloxymethyl 2-(3-hydroxypyridin-2-ylamino)ethylidene-1,1-bisphosphonate] | 8.9 | 13 | 4.6 | – | – | –
CC(C)(C)C(=O)OCOP(=O)(OCOC(=O)C(C)(C)C)C(CNc1cc(Br)ccn1)P(=O)(OCOC(=O)C(C)(C)C)OCOC(=O)C(C)(C)C [Compound 28, tetrakispivaloyloxymethyl 2-(4-bromopyridin-2-ylamino)ethylidene-1,1-bisphosphonate] | 7.1 | 6 | 6.5 | – | – | –
CC(C)(C)C(=O)OCOP(=O)(OCOC(=O)C(C)(C)C)C(CNc1ccnc(Br)c1)P(=O)(OCOC(=O)C(C)(C)C)OCOC(=O)C(C)(C)C [Compound 29, tetrakispivaloyloxymethyl 2-(2-bromopyridin-4-ylamino)ethylidene-1,1-bisphosphonate] | 6.6 | 12 | > 10 | – | – | –
CC(C)(C)C(=O)OCOP(=O)(OCOC(=O)C(C)(C)C)C(Cn1ccc2cccnc21)P(=O)(OCOC(=O)C(C)(C)C)OCOC(=O)C(C)(C)C [Compound 31, tetrakispivaloyloxymethyl 2-(7-azaindol-1-yl)ethylidene-1,1-bisphosphonate] | 2.2 | 1.7 | 1.6 | high activity | high activity | –
CC(C)(C)C(=O)OCOP(=O)(OCOC(=O)C(C)(C)C)C(CNc1cc[nH]n1)P(=O)(OCOC(=O)C(C)(C)C)OCOC(=O)C(C)(C)C [Compound 32, tetrakispivaloyloxymethyl 2-(pyrazol-3-ylamino) ethylidene-1,1-bisphosphonate] | 6.3 | 12 | 4.4 | – | – | –
Cc1csc(NCC(P(=O)(OCOC(=O)C(C)(C)C)OCOC(=O)C(C)(C)C)P(=O)(OCOC(=O)C(C)(C)C)OCOC(=O)C(C)(C)C)n1 [Compound 33, tetrakispivaloyloxymethyl 2-(4-methylthiazol-2-ylamino)ethylidene-1,1-bisphosphonate] | 5 | 4.2 | 3.6 | – | – | –
CC(C)(C)C(=O)OCOP(=O)(OCOC(=O)C(C)(C)C)C(CNc1nc(-c2ccccc2)cs1)P(=O)(OCOC(=O)C(C)(C)C)OCOC(=O)C(C)(C)C [Compound 35, tetrakispivaloyloxymethyl 2-(4-phenylthiazol-2-ylamino)ethylidene-1,1-bisphosphonate] | 1.1 | 3.5 | > 10 | high activity | high activity | –
CC(C)(C)C(=O)OCOP(=O)(OCOC(=O)C(C)(C)C)C(CNc1nncs1)P(=O)(OCOC(=O)C(C)(C)C)OCOC(=O)C(C)(C)C [Compound 38, tetrakispivaloyloxymethyl 2-(1,3,4-thiadiazol-2-ylamino)ethylidene-1,1-bisphosphonate] | 11 | 8.5 | 1.9 | – | – | –
